According to patent publication US20240390377A1, “COMPOSITION FOR THE PREVENTION OR TREATMENT OF NEURODEGENERATIVE OR MOTOR NEURON DISEASES COMPRISING HALOFUGINONE AS AN ACTIVE INGREDIENT” (CURAMYS CO., LTD., priority 2022, published 2024):

Key:
Format in all cases: in vivo, mouse
[1] = system: G93A mutant SOD1 transgenic mice; test: Range of motion (ROM) of the knee joint in ALS animal model; settings: 120 days old; compared to DMSO Non-TG group (DMSO TG significantly reduced)
Protocol: As a control group, non-transgenic mice were injected intraperitoneally (i.p.) with vehicle (DMSO) in the same manner for the same period of time. Specifically, anatomical indicators were used to determine the knee extension angle. Manual knee joint ROM was measured at the end of disease age (120 days) using Random Two-line, a 2D angle analysis system. The mice of Example 6 were anesthetized with 1% isoflurane inhalation, followed by placing them on an acrylic plate and shaving the skin on their hind legs. The femur was fixed to the plate and a constant force extension moment was applied to the knee joint per mouse. Subsequently, markers were attached to greater trochanter, epicondyle of the knee, and lateral malleolus to obtain markers on the imaging. The angle between the axis of the femur (the greater trochanter to the lateral joint space of the knee) and the fibula (the lateral joint space of the knee to the lateral malleolus) was measured as the knee extension ROM. Sixteen mice in each group were analyzed, and the knees of non-transgenic mice injected with DMSO in the group on day 120 were used as controls. Specifically, halofuginone was administered to G93A mutant SOD1 mice in the same manner as described in Example 6, and ROM measurement of the knee joint was performed in the same manner as described in Example 10 (FIG. 8a). […]

[2] = system: G93A mutant SOD1 transgenic mice; test: Immunohistochemical analysis of knee joint synovial cavity in ALS animal model
Protocol: (§1) As a control group, non-transgenic mice were injected intraperitoneally (i.p.) with vehicle (DMSO) in the same manner for the same period of time.
Specifically, the mice of Example 6 above were perfused with 4% paraformaldehyde (PFA) on 90 and 120 days of age, and the lumbar spinal cord and knee joints were separated. After fixation in 4% PFA for 24 hours, the knee joints were rinsed in running tap water for 24 hours and then incubated at 4° C. with continuous shaking in decalcifying solution (Calci-Clear, HS-104, National Diagnostics). The decalcification solution was replaced daily with fresh solution until the bones were easily penetrated with a needle, indicating completion of the decalcification process. Subsequently, the decalcified knee joints were rinsed in running tap water for 24 hours, and the spinal cord and knee joint samples were treated with 30% sucrose until they sank, followed by freeze protection, followed by successive cuts (14 μm). The lumbar spinal cord and knee joint tissue sections were washed three times with PBS and permeabilized with 0.5% Triton X-100 for 5 minutes. Subsequently, they were blocked with 5% bovine serum albumin (BSA) in 0.3% PBS-T at room temperature for 1 hour. The knee joint tissue sections were incubated with anti-TGF-β1 antibody (1:200; Santa Cruz, cat #sc130348), anti-α-SMA antibody (1:200; Abcam, cat #ab7817), anti-MyoD antibody (1:200; Santa Cruz, cat #sc377460), and anti-Collagen I antibody (1:200; Abcam, cat #ab21286) each, while the lumbar spinal cord sections were incubated with anti-GFAP antibody (1:200; Dako, cat #Z0334), anti-Iba1 antibody (1:200; Wako, cat #016)-20001), anti-TGF-β1 antibody (1:200; Santa Cruz, cat #sc130348), anti-TGF-β1 antibody (1:200; Abcam, cat #ab92486), and anti-IL-1β antibody (1:200; R&D Systems, cat #AF-401-NA) at 4° C. for an additional 24 hours. After washing the sections three times with PBS, they were incubated with Alexa Fluor secondary antibodies in a dark chamber at room temperature for 1 hour. […] Furthermore, analysis was performed using Leica Application Suite X software (Leica Microsystems).
Specifically, halofuginone was administered to G93A mutant SOD1 mice from the early onset of ALS (day 73) in the same manner as described in Example 6. Immunohistochemical analysis was performed on the knee joints of early-stage female and male mice (90 days old, FIGS. 7a and 7b) and late-stage female and male mice (120 days old, FIGS. 7c and 7d) in the same manner as described in <Example 8>.

[3] = system: G93A mutant SOD1 transgenic mice; test: Real-time qRT-PCR analysis of lumbar spinal cord in ALS animal model
Protocol: as §1
Specifically, total RNA was isolated from C2C12 cells in Example 1, fibroblasts in Example 5, and the lumbar spinal cord of mice in Example 6 using the FavorPrep™ Tri-RNA Reagent (Favorgen). The lumbar spinal cord was isolated from the mouse in Example 6 and stored frozen at −80° C. until the experiment. The concentration of total RNA was measured at 260 nm absorbance using a spectrophotometer (NanoDrop Spectrophotometer ND-2000, Thermo Scientific). cDNA was synthesized from 1 μg of total RNA using the ReverTra Ace-α™ (Toyobo) according to the manufacturers protocol. Quantitative RT-PCR was performed using the SYBR Green ExcelTaq™ 2× Fast Q-PCR Master Mix (TQ1200, Smobio) on a thermocycler (CFX Connect Real-Time PCR Detection System, BIO-RAD) with the primers listed in Table 3 below. Fluorescence data were analyzed with Bio-Rad CFX Manager 3.1 software, and control versus relative mRNA expression was calculated by the 2AT) method. Experiments were performed four times on all samples. All primers were designed using Primer3 online software, and GAPDH was used as a control group.
In addition, to investigate the motor neuron source of the spinal cord, motor neurons of the lumbar spinal cord were observed and counted in the same manner as described in Example 9 (FIG. 9d), and real-time qRT-PCR and Western blot analysis were performed in the same manner as described in Example 11 and Example 12 to quantitatively analyze the expression of ChAT mRNA (FIG. 9e) and ChAT protein (FIG. 9f).
Specifically, Halofuginone was administered to G93A mutant SOD1 mice in the same manner as described in <Example 6>, and lumbar spinal cord was isolated after 120 days of age of mice were sacrificed. Then, mRNA expression of inflammation-related factors and neuronal cell death-related factors of CNS was confirmed by performing real-time qRT-PCT analysis in the same manner as in Example 11 (FIG. 11a), and protein expression of neuronal cell death-related factors was confirmed by performing Western blot analysis in the same manner as in Example 12 (FIG. 11b). Since the role (inflammatory or anti-inflammatory effect) differs according to the M1 or M2 subtype of microglia, the expression of M1 marker (iNOS, CD86), M2 marker (arginase 1) and pro-inflammatory factors (IFN-a, TNF-a, IL-1b, and IL-6) were confirmed as factors related to inflammation of CNS. In addition, the expression of caspase-3, bax, and bcl-2 was confirmed as factors related to neuronal apoptosis.

[4] = 90 days old (early stage), females and males, vs DMSO TG group
[5] = 120 days old (late stage), vs DMSO TG group

**Q.** For `O=C(C[C@H]1NCCC[C@@H]1O)Cn1cnc2cc(Br)c(Cl)cc2c1=O` (racemic) [halofuginone], which “range of motion (ROM) of the knee joint” value [1] is on record?
**A.** not changed

**Q.** And the “increase in TGF-β in knee joint synovial cavity” value ([2]; 90 days old (early stage), females and males, 250 μg/kg i.p.)?
**A.** suppressed

**Q.** What about the “Col-I expression in knee joint synovial cavity” value [2, 4] of the same compound?
**A.** significantly lower

**Q.** What about the “α-SMA expression in knee joint synovial cavity” value [2, 4] of the same compound?
**A.** significantly lower

**Q.** And the “Col-I in the synovial cavity” value [2, 5]?
**A.** significantly lower

**Q.** What about the “MyoD in the synovial cavity” value [2, 5] of the same compound?
**A.** higher

**Q.** And the “TGF-β1 in the synovial cavity” value [2, 5]?
**A.** significantly lower

**Q.** What about the “α-SMA in the synovial cavity” value [2, 5] of the same compound?
**A.** significantly lower

**Q.** And the “strength of TGF-β1, MyoD and Col-1 in the synovial cavity” value ([2]; 120 days old, female Hal TG group vs DMSO non-TG group)?
**A.** not different

**Q.** And the “strength of MyoD in the synovial cavity” value ([2]; 120 days old, male Hal TG group vs DMSO non-TG group)?
**A.** slightly increased

**Q.** And the “mRNA level of ChAT in lumbar spinal cord” value ([3]; 120-day-old mice, compared to DMSO Non-TG group (FIG. 9e))?
**A.** preserved similarly

**Q.** And the “increase in mRNA levels of M1 markers (iNOS, CD86) in lumbar spinal cord” value ([3]; 120 days of age (FIG. 11a))?
**A.** inhibited

**Q.** And the “increase in mRNA levels of proinflammatory factors (IFN-a, TNF-a, IL-1b, IL-6) in lumbar spinal cord” value ([3]; 120 days of age (FIG. 11a))?
**A.** inhibited

**Q.** And the “mRNA level of bcl-2 in lumbar spinal cord” value ([3]; 120 days of age, decreased in DMSO TG group (FIG. 11a))?
**A.** preserved
